Laboratory results published in patent US20040127440A1, “Methods and compositions for control of bone formation via modulation of neuropeptide Y activity” (BAYLOR COLLEGE OF MEDICINE, priority 2000, published 2004).

System: wt mice
Experiment: Intracerebroventricular infusion of NPY in wt mice, histological/histomorphometric analysis of vertebrae
Type: in vivo
Conditions: 4 month-old wt mice, icv infusion 0.5 μl/hour (75 ng/hr) for 28 days, compared with PBS-treated mice
Description: Bone specimens were processed as described (Ducy et al., 1999, Genes Dev 13, 1025-1036).
Histological analyses were performed on undecalcified sections stained with the von Kossa reagent and counterstained with Kernechtrot (Amling et al., 1999, Endocrinology, 140: 4982-4987). Double labeling technique with calcein has been described (Amling et al., 1999, Endocrinology, 140: 4982-4987). Static and dynamic histomorphometric analyses were performed according to standard protocols (Parfitt et al., 1987, J Bone Min Res, 2:595-610) using the Osteomeasure Analysis System (Osteometrics, Atlanta). Statistical differences between groups (n=4 to 6) were assessed by Student's test.
Animals were anesthetized with avertin and placed on a stereotaxic instrument (Stoelting). The calvaria was exposed and a 0.7 mm hole was drilled upon bregma. A 28-gauge cannula (Brain infusion kit II, Alza) was implanted into the third ventricle according to the following coordinates: midline, −0.3 AP, 3 mm ventral (0 point bregma). The cannula was secure to the skull with cyanoacrylate, and attached with Tygon tubing to an osmotic pump (Alza) placed in the dorsal subcutaneous space of the animal. The rate of delivery was 0.5 μl/hour (75 ng/hr) of NPY (Sigma) or PBS for 28 days.
The issue of whether NPY binding to its receptor would affect bone mass was examined in this example. […]

neuropeptide Y [NPY]
bone mass: decrease | bone volume: decrease
